Reference: patent US6375979B2 (Somerset Pharmaceuticals, Inc., priority 1995, dated 2002)
“And” between values parts separate entries of the source, which are not always exact repeats. Equal values may be shown once. Read-outs that look alike come from different tables or passages of the source.

Assays:
[1] = tested on: cultured rat mesencephalic cells; assay: Medium change (glutamate receptor dependent) model of cell death: [3H]-dopamine uptake; conditions: for neuron protection by measurement of dopamine uptake (FIG. 15): glutamate receptor dependent model
Procedure: Preparations are then added to 10 ml Ecoscint (National Diagnostics) and counted in a scintillation spectrometer.
(§2) In these experiments, cells were plated and allowed to stabilize for several days.

[2] = tested on: cultured embryonic mesencephalic cells; assay: Neuronal survival: [3H]dopamine uptake by cultured mesencephalic cells; assay type: cell-based, rat
Description: The amount of uptake by the cultured brain cells corresponds to axonal growth.

[3] = tested on: cultured rat mesencephalic cells exposed to NMDA; assay: NMDA model of cell death: TH immunochemistry; conditions: 50 μM, 100 μM NMDA exposure
Procedure: Rat mesencephalic cell cultures were exposed to 100 μM NMDA and incubated as described above in connection with FIG. 16.

[4] = molecular target: T1, dopamine re-uptake system (Rattus norvegicus, UniProt P23977); assay: Inhibition of dopamine re-uptake in rat neostriatal synaptosome preparation; assay type: biochemical
T1 construct: (synaptosome preparation) was obtained form fresh rat neostriatal brain tissue; from tissue; host or cells: rat neostriatum, synaptosome preparation
T1 sequence (P23977 whole entry): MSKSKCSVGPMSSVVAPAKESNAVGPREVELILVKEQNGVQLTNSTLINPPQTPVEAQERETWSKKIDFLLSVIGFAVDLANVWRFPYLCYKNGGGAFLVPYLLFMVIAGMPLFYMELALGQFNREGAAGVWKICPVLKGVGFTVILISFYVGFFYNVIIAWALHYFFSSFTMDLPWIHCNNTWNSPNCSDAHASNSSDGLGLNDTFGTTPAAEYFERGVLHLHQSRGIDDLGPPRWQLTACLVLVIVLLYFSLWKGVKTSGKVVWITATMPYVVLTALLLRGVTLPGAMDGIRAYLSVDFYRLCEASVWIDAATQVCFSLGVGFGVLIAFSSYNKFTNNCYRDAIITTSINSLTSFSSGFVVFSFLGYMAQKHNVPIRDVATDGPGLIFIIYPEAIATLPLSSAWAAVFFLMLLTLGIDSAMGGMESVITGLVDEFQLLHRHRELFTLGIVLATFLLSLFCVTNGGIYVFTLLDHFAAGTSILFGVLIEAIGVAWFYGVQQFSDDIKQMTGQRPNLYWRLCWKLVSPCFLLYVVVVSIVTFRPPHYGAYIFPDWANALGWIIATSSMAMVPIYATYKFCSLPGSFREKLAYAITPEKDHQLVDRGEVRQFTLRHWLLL
Procedure: An in vitro nerve terminal preparation (synaptosome preparation) was prepared using fresh rat neostriatal tissue.
FIG. 19: Determination of IC50 Values for Inhibition of Dopamine Re-Uptake.
An in vitro nerve-terminal preparation (synaptosome preparation) was obtained form fresh rat neostriatal brain tissue. Transport by dopamine nerve-terminals was estimated by measuring the uptake of tritiated dopamine.

[5] = molecular target: T2, MAO-A (Cavia porcellus, UniProt H0UVA2); assay: MAO-A inhibition in guinea pig hippocampal homogenates in vitro; assay type: biochemical; parameters: by human platelets and/or guinea pig hippocampal homogenates; from tissue; host or cells: guinea pig hippocampus homogenate
T2 sequence (H0UVA2 1-461): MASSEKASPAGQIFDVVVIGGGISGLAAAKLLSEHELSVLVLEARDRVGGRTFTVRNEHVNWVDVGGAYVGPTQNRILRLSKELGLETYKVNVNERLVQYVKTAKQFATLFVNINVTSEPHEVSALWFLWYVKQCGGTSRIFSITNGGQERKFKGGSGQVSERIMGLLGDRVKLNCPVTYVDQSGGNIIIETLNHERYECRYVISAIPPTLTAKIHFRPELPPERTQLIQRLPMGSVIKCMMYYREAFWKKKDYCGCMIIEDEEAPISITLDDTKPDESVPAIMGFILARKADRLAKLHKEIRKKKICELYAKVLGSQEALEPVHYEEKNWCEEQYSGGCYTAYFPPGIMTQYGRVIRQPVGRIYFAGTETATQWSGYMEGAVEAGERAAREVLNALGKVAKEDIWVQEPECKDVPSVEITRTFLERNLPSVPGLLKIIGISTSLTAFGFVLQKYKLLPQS
Description: Human platelet MAO is comprised exclusively of the type-B isoform of the enzyme. […] The present study also examined the two enantiomers of DMS for inhibitory activity with respect to the MAO-A and MAO-B in guinea pig hippocampal tissue. Guinea pig brain tissue is an excellent animal model for studying brain dopamine metabolism, the enzyme kinetics of the multiple forms of MAO and the inhibitory properties of novel agents that interact with these enzymes. The multiple forms of MAO in this animal species show similar kinetic properties to those found in human brain tissue. Finally, the test agents were administered to guinea pigs and the extent to which they might act as inhibitors of brain MAO in vivo was assessed.
In vitro: The test system utilized the in vitro conversion of specific substrates of MAO-A (^14C-serotonin) and MAO-B (^14C-phenylethylamine) by human platelets and/or guinea pig hippocampal homogenates. […] A percent inhibition was calculated from these values.

[6] = tested on: cultured rat mesencephalic cells; assay: Medium change (glutamate receptor dependent) model of cell death: TH positive cells
Procedure: as §2

[7] = tested on: interleukin-2 production; assay: Concanavalin A-induced interleukin-2 production by spleen cells of treated old rats; assay type: in vivo, rat; conditions: ip daily 60 days
Procedure: The present experiments utilized a rat model to examine the ability of R(−)DMS and S(+)DMS to restore immunological function. Rats were divided into the following experimental groups:
(§1) Rats were administered saline or test agent ip, daily for 60 days. They were then maintained for an additional “wash out” period of 10 days during which time no treatment was given. At the end of this time, animals were sacrificed and their spleens were removed. The spleen cells were then assayed for a variety of factors which are indicative of immune system function. Specifically, standard tests were employed to determine the following:
2) in vitro concanavalin A-induced production of interleukin-2;

[8] = tested on: cultured rat mesencephalic cells exposed to NMDA; assay: NMDA model of cell death: [3H]-dopamine uptake; conditions: 50 μM, 100 μM NMDA exposure
[9] = molecular target: T3, MAO-A (Rattus norvegicus, UniProt P21396)
T3 sequence (P21396 1-526): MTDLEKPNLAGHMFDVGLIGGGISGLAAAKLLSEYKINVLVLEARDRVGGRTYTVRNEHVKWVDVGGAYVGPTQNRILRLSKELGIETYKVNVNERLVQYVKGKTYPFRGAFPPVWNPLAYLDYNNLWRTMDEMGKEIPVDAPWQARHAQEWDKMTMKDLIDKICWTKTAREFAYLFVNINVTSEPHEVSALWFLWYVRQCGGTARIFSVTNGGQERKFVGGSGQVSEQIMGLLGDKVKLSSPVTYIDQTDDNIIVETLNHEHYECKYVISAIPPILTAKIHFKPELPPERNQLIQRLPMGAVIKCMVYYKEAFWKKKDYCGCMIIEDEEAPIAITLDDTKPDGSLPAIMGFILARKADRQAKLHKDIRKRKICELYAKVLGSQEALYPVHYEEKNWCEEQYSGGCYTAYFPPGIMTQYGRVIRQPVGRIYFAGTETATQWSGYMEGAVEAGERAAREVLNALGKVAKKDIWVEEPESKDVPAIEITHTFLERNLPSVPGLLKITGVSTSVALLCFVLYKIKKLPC

[10] = tested on: γ-interferon production; assay: γ-interferon production by concanavalin A-stimulated spleen cells of treated old rats; assay type: in vivo, rat; conditions: old rats, ip daily 60 days; 1.0 mg/kg (for DMS enantiomers)
Procedure: Rats were divided into the following experimental groups:
as §1
1) in vitro production of γ-interferon by concanavalin A-stimulated spleen cells;

[11] = tested on: TH positive cells in cultured E-14 embryonic mesencephalic cells
[12] = 50 μM, medium change model, listed as Deprenyl
[13] = 1.0 mg/kg (for DMS enantiomers)

SMILES: C#CCN(C)Cc1ccccc1 [Pargyline, pargyline, reference compound]
- neuron protection by measurement of dopamine uptake (FIG. 15) ([1]; at the concentrations used (0.5, 5 and 50 μM)): did not appear to offer any protection

SMILES: C#CCN(C)CCCOc1ccc(Cl)cc1Cl [clorgyline, reference compound]
- neuron protection by measurement of dopamine uptake (FIG. 15) ([1]; 50 μM): protected

SMILES: C#CCN(C)[C@H](C)Cc1ccccc1 [Selegiline, R-(−)-N-methyl-N-(prop-2-ynyl)-2-aminophenylpropane, reference compound]
- 3H-Dopamine Uptake, % Cont ([2]; 0.5 μM): 120.6%
- 3H-Dopamine Uptake, Mean ([2]; 0.5 μM): 14452 ± 212
- 3H-Dopamine Uptake, % Cont ([2]; 5 μM): 137.5%
- 3H-Dopamine Uptake, Mean ([2]; 5 μM): 16468 ± 576
- 3H-Dopamine Uptake, % Cont ([2]; 50 μM): 275.5%
- 3H-Dopamine Uptake, Mean ([2]; 50 μM): 33018 ± 1317
- TH Immunochemistry, % control, Mean [3]: 234.3%
- TH Immunochemistry, cells/cm^2, Mean [3]: 220.63 cells/cm^2
- TH Immunochemistry, % control, individual cultures ([3]; listed as Deprenyl): 244.2% and 305.3% and 199.1% and 188.5%
- TH Immunochemistry, cells/cm^2, individual cultures ([3]; listed as Deprenyl): 230.0 cells/cm^2 and 287.5 cells/cm^2 and 187.5 cells/cm^2 and 177.5 cells/cm^2
- 3H-Dopamine uptake, % Reduction x ± SEM ([4]; 1 μM): 13.9 ± 4.7%
- 3H-Dopamine uptake, % Reduction x ± SEM ([4]; 10 μM): 16.3 ± 3.8%
- 3H-Dopamine uptake, % Reduction x ± SEM ([4]; 100 μM): 7.0 ± 3.6%
- 3H-Dopamine uptake, % Reduction x ± SEM ([4]; 100 μM (last row of each agent)): 59.8 ± 1.0%
- IC50 [5]: 2.5 µM
- inhibition at 0.3 µM ([5]; 300 nM, guinea pig hippocampus, read-out: MAO-A % Inhibition x = SEM): 11.9 ± 2.4%
- inhibition at 1 µM ([5]; 1 μM, guinea pig hippocampus, read-out: MAO-A % Inhibition x = SEM): 22.1 ± 1.2%
- inhibition at 3 µM ([5]; 3 μM, guinea pig hippocampus, read-out: MAO-A % Inhibition x = SEM): 53.5 ± 2.7%
- reduction in potency compared to selegiline (value in parentheses) ([5]; MAO-A IC50, guinea pig hippocampal cortex): 1
- TH Immunochemistry, % control, Mean ([6]; 50 μM, medium change model): 130.6%
- TH Immunochemistry, cells/cm^2, Mean ([6]; 50 μM, medium change model): 344.17 cells/cm^2
- TH Immunochemistry, % control, individual cultures [6, 12]: 146.0% and 124.2% and 121.4%
- TH Immunochemistry, cells/cm^2, individual cultures [6, 12]: 385.0 cells/cm^2 and 327.5 cells/cm^2 and 320.0 cells/cm^2
- survival of dopaminergic neurons (FIGS. 11 and 12) ([6]; 0.5, 5.0 or 50 μM, 4 days of daily medium changes, TH staining and dopamine uptake): promotes the survival of dopaminergic neurons
- IL-2 % control [7, 13]: 376%
- IL-2 U/ml mean [7, 13]: 73.78 U/ml
- IL-2 U/ml mean ([7]; […] (for R(−)DMS by group order)): 109.6 U/ml
- neuron protection by measurement of dopamine uptake (FIG. 15) ([1]; 50 μM): neuron protection
- Dopamine uptake, % control, Mean ([1]; 50 μM, medium change model): 170.1%
- Dopamine uptake, counts/min, Mean ([1]; 50 μM, medium change model): 35714 counts/min
- Dopamine uptake, % control, individual cultures [1, 12]: 181.2% and 162.6% and 175.3% and 161.3%
- Dopamine uptake, counts/min, individual cultures [1, 12]: 38053 counts/min and 34130 counts/min and 36810 counts/min and 33863 counts/min
- Dopamine uptake, % control, Mean [8]: 257.4%
- Dopamine uptake, counts/min, Mean [8]: 17393.8 counts/min
- Dopamine uptake, % control, individual cultures ([8]; listed as Deprenyl): 228.1% and 273.5% and 251.0% and 259.8% and 274.9%
- Dopamine uptake, counts/min, individual cultures ([8]; listed as Deprenyl): 15410 counts/min and 18479 counts/min and 16958 counts/min and 17550 counts/min and 18572 counts/min
- inhibition ([9]; 0.3 µM): 9.75%
- inhibition ([9]; 1 μM): 32.5%
- inhibition ([9]; 3 µM): 65.5%
- inhibition ([9]; 10 μM): 97.8%
- IFN-γ % control [10]: 550%
- IFN-γ U/ml mean [10]: 1934 U/ml
- Survival of TH positive cells, % cont. ([11]; 0.5 μM): 185.81%
- Survival of TH positive cells, Mean cells/cm^2 ([11]; 0.5 μM): 201.70 ± 25.01 cells/cm^2
- Survival of TH positive cells, % cont. ([11]; 5 μM): 218.33%
- Survival of TH positive cells, Mean cells/cm^2 ([11]; 5 μM): 237.00 ± 12.59 cells/cm^2
- Survival of TH positive cells, % cont. ([11]; 50 μM): 269.25%
- Survival of TH positive cells, Mean cells/cm^2 ([11]; 50 μM): 292.28 ± 17.41 cells/cm^2

SMILES: NCCc1ccc(O)c(O)c1 [Dopamine, dopamine, reference compound]
- 3H-Dopamine uptake, % Reduction x ± SEM ([4]; 1 μM): 52.0 ± 4.9%
- 3H-Dopamine uptake, % Reduction x ± SEM ([4]; 10 μM): 80.9 ± 0.4%

SMILES: C[C@]12N[C@H](Cc3ccccc31)c1ccccc12 [MK-801, reference compound]
- neuron protection by measurement of dopamine uptake (FIG. 15) ([1]; 10 μM): protection was also obtained
